One test deals with T1, Gal4-RORγ-LBD (Homo sapiens, UniProt P51449).
T1 construct: expressed in transfected cells
T1 sequence (P51449 269-508 limits assumed): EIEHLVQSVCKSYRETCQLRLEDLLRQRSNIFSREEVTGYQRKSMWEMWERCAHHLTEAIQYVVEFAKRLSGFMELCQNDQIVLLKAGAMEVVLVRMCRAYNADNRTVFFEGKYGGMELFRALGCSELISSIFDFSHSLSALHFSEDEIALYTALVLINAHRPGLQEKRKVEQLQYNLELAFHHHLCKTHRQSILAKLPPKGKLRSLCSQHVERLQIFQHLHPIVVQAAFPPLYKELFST
The experiment in a line: Gal4-RORγ Luciferase Reporter Assay in HEK-293T Cells. Type of test: cell-based. The conditions noted are these: HEK-293 cells; for Gal4-RORγ Assay Max Response: maximum response. Summed up:
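HEK-293 cells were co-transfected with Gal4-RORγ-LBD and a Gal4-luciferase reporter, then exposed overnight at 37 °C to compounds with […] ursolic acid present (0.2% DMSO). Luminescence was read with One-Glo after 10 min at RT, untreated signal was set as 100, and Max Response was taken as the upper plateau of a 4-parameter logistic fit.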
On the technique in general: A reporter such as luciferase makes a cellular process visible.

The next test deals with T2, RORγ-LBD (Homo sapiens, UniProt P51449).
T2 construct: made in house; host or cells: SF9 cells (baculovirus); used as diluted lysate
T2 sequence (P51449 269-508 limits assumed): T1 sequence (P51449 269-508 limits assumed)
The experiment in a line: RORγ-Ligand Binding Domain (LBD) TR-FRET Assay.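 As to TR-FRET Assay Max Response: 665/615 nm signal ratio set to 100 without ursolic acid or test compound.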 The format is biochemical. The conditions noted are these: for TR-FRET Assay Max Response: maximum response. In outline: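 SF9 lysate containing His-RORγ-LBD, ~3 nM final; coactivator peptide biotin-SRC1 LXXLL, 200 nM final; ursolic acid 2 μM final; DMSO 1% final; Tris pH 7.0 buffer with KCl, EDTA, DTT, BSA. TR-FRET format.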

Where [1] appears, read: luciferase reporter, with ursolic acid.
Where [2] appears, read: luciferase reporter, in presence of ursolic acid.

Some results are limits rather than exact numbers.

The term EC50 denotes the concentration that produces a half-maximal response. Regarding `CCC(=Cc1ccc2c(c1)N(S(=O)(=O)c1cccc(C(F)(F)F)c1)C[C@H](CCCC(=O)O)O2)CC` [Example 195F, (S)-4-(6-(2-ethylbut-1-en-1-yl)-4-((3-(trifluoromethyl)phenyl)-sulfonyl)-3,4-dihydro-2H-benzo[b][1,4]oxazin-2-yl)butanoic acid], the EC50 at Gal4-RORγ-LBD (ursolic acid present, luciferase readout) is less than 500 nM; at RORγ-LBD (with 2 μM ursolic acid (RORγ antagonist), highest test concentration 10 μM), less than 500 nM.

As for `COc1cc(S(=O)(=O)N2C[C@H](CC(C)(C)C(=O)O)Cc3ccc(OCc4c(F)cccc4Cl)cc32)ccc1F` [Example 27, (S)-3-(7-((2-Chloro-6-fluorobenzyl)oxy)-1-((4-fluoro-3-methoxyphenyl)sulfonyl)-1,2,3,4-tetrahydroquinolin-3-yl)-2,2-dimethylpropanoic acid], the EC50 on Gal4-RORγ-LBD (setting [1]) and at RORγ-LBD (RORγ-LBD TR-FRET) was less than 500 nM in each case.

In the case of `COC(=O)CC[C@H]1CN(S(=O)(=O)c2cccc(C(F)(F)F)c2)c2cc(/C=C/c3c(Cl)cccc3OC)ccc2O1` [Example 89EZ, methyl (S,E)-3-(6-(2-chloro-6-methoxystyryl)-4-((3-(trifluoromethyl)phenyl)-sulfonyl)-3,4-dihydro-2H-benzo[b][1,4]oxazin-2-yl)propanoate], the EC50 on Gal4-RORγ-LBD (setting [1]) and on RORγ-LBD (RORγ-LBD TR-FRET) was less than 500 nM in each case.

`C/C(=C\c1ccc2c(c1)N(S(=O)(=O)c1cccc(C(F)(F)F)c1)C[C@H](CCN1CCC(O)C1)O2)c1c(F)cccc1Cl` (stereo partly drawn) [Example 119C, 1-(2-((S)-6-((E)-2-(2-chloro-6-fluorophenyl)prop-1-en-1-yl)-4-((3-(trifluoromethyl)-phenyl)sulfonyl)-3,4-dihydro-2H-benzo[b][1,4]oxazin-2-yl)ethyl)pyrrolidin-3-ol]: at Gal4-RORγ-LBD (setting [2]), the EC50 lay within 500 to 5000 nM and the “Gal4-RORγ Assay Max Response” value is given as “** (a value in the range of greater than 90 to 150)”. In addition, on RORγ-LBD (RORγ-LBD TR-FRET assay), the EC50 is less than 500 nM and the “TR-FRET Assay Max Response” value was “*** (a value in the range of greater than 150 to 200)”.

For `C/C(=C\c1ccc2c(c1)C(S(=O)(=O)c1cccc(C(F)(F)F)c1)CC(CNC(=O)C1CC1)O2)c1c(F)cccc1Cl` (stereo not drawn) [Example 183, (E)-N-((6-(2-(2-Chloro-6-fluorophenyl)prop-1-en-1-yl)-4-((3-(trifluoromethyl)phenyl)sulfonyl)chroman-2-yl)methyl)cyclopropanecarboxamide], at Gal4-RORγ-LBD (setting [2]), the EC50 lay in the range of 500 to 5000 nM and the “Gal4-RORγ Assay Max Response” value is “** (a value in the range of greater than 90 to 150)”. Also, at RORγ-LBD (RORγ-LBD TR-FRET assay), the EC50 was less than 500 nM and the “TR-FRET Assay Max Response” value was “*** (a value in the range of greater than 150 to 200)”.

In the case of `C/C(=C\c1ccc2c(c1)N(S(=O)(=O)c1cccc(C(F)(F)F)c1)C[C@@H](N)C2)c1c(F)cccc1Cl` [Example 166, (S,E)-7-(2-(2-Chloro-6-fluorophenyl)prop-1-en-1-yl)-1-((3-(trifluoromethyl)phenyl)sulfonyl)-1,2,3,4-tetrahydroquinolin-3-amine], on Gal4-RORγ-LBD (setting [2]), the EC50 was 500 to 5000 nM and the “Gal4-RORγ Assay Max Response” value is “** (a value in the range of greater than 90 to 150)”. Also, at RORγ-LBD (RORγ-LBD TR-FRET assay), the EC50 is less than 500 nM and the “TR-FRET Assay Max Response” value is “*** (a value in the range of greater than 150 to 200)”.

As to `COc1cc(S(=O)(=O)N2CCCc3ccc(O[C@@H]4c5ccccc5C[C@H]4C)cc32)ccc1F` (relative stereo) [Example 25E, 1-((4-fluoro-3-methoxyphenyl)sulfonyl)-7-(((trans)-2-methyl-2,3-dihydro-1H-inden-1-yl)oxy)-1,2,3,4-tetrahydroquinoline], the results for the EC50 at Gal4-RORγ-LBD (setting [1]) and at RORγ-LBD (RORγ-LBD TR-FRET) were 500 to 5000 nM and less than 500 nM, respectively.

`C/C(=C\c1ccc2c(c1)N(S(=O)(=O)c1cccc(C(F)(F)F)c1)C[C@H](CCC(=O)N1CCCC1)O2)c1c(F)cccc1Cl` [Example 126, (S,E)-3-(6-(2-(2-Chloro-6-fluorophenyl)prop-1-en-1-yl)-4-((3-(trifluoromethyl)phenyl)sulfonyl)-3,4-dihydro-2H-benzo[b][1,4]oxazin-2-yl)-1-(pyrrolidin-1-yl)propan-1-one]: at Gal4-RORγ-LBD (setting [2]), the EC50 is less than 500 nM and the “Gal4-RORγ Assay Max Response” value is given as “** (a value in the range of greater than 90 to 150)”. Also, at RORγ-LBD (RORγ-LBD TR-FRET assay), the EC50 was less than 500 nM and the “TR-FRET Assay Max Response” value was “** (a value in the range of greater than 90 to 150)”.

For the compound `C/C(=C\c1ccc2c(c1)N(S(=O)(=O)c1cccc(C(F)(F)F)c1)[C@H](C)[C@H](NS(C)(=O)=O)C2)c1c(F)cccc1Cl` [Example 116J, N-((2R,3R)-7-((E)-2-(2-chloro-6-fluorophenyl)prop-1-en-1-yl)-2-methyl-1-((3-(trifluoromethyl)phenyl)sulfonyl)-1,2,3,4-tetra-hydroquinolin-3-yl)methanesulfonamide], at Gal4-RORγ-LBD (setting [2]), the EC50 is 500 to 5000 nM and the “Gal4-RORγ Assay Max Response” value was “*** (a value in the range of greater than 150 to 200)”. On RORγ-LBD (RORγ-LBD TR-FRET assay), the EC50 was less than 500 nM and the “TR-FRET Assay Max Response” value is on record as “*** (a value in the range of greater than 150 to 200)”.

As to `CC/C(=C\c1ccc2c(c1)N(S(=O)(=O)c1cccc(C(F)(F)F)c1)C[C@H](CCC(=O)O)O2)c1ccccc1` [Example 36C, (S,E)-3-(6-(2-phenylbut-1-en-1-yl)-4-((3-(trifluoromethyl)-phenyl)sulfonyl)-3,4-dihydro-2H-benzo[b][1,4]oxazin-2-yl)propanoic acid], the EC50 is 500 to 5000 nM at Gal4-RORγ-LBD (setting [1]) and less than 500 nM at RORγ-LBD (RORγ-LBD TR-FRET).

With `CCOc1nn(CC)cc1S(=O)(=O)N1C[C@H](CCC(=O)OC)Oc2ccc(/C=C/c3ccccc3Cl)cc21` [Example 89BD, (S,E)-methyl 3-(6-(2-chlorostyryl)-4-((3-ethoxy-1-ethyl-1H-pyrazol-4-yl)sulfonyl)-3,4-dihydro-2H-benzo[b][1,4]-oxazin-2-yl)propanoate], the results for the EC50 at Gal4-RORγ-LBD (setting [1]) and at RORγ-LBD (RORγ-LBD TR-FRET) were more than 10000 nM and less than 500 nM, respectively.

Take `COC(=O)CC[C@H]1CN(S(=O)(=O)c2cc(C(F)(F)F)cnc2OCCO)c2cc(C=C(C)C)ccc2O1` [Example 95AD, methyl (S)-3-(4-((2-(2-hydroxyethoxy)-5-(trifluoromethyl)pyridin-3-yl)sulfonyl)-6-(2-methylprop-1-en-1-yl)-3,4-dihydro-2H-benzo[b][1,4]oxazin-2-yl)propanoic acid]: the figures for the EC50 at Gal4-RORγ-LBD (setting [1]) and on RORγ-LBD (RORγ-LBD TR-FRET) were 500 to 5000 nM and less than 500 nM, respectively.

As to `CCOc1nn(CC)cc1S(=O)(=O)N1C[C@H](CCC(=O)O)Oc2ccc(/C=C/c3c(C)cccc3F)cc21` [Example 89AG, (S,E)-3-(4-((3-ethoxy-1-ethyl-1H-pyrazol-4-yl)sulfonyl)-6-(2-fluoro-6-methylstyryl)-3,4-dihydro-2H-benzo[b][1,4]-oxazin-2-yl)propanoic acid], the EC50 at Gal4-RORγ-LBD (setting [1]) and at RORγ-LBD (RORγ-LBD TR-FRET) was less than 500 nM in each case.

Regarding `COc1cc(S(=O)(=O)N2C[C@H](CNC(=O)C(=O)O)Oc3ccc(/C=C(\C)c4c(F)cccc4Cl)cc32)ccc1F` [Example 135B, (S,E)-2-(((6-(2-(2-chloro-6-fluorophenyl)prop-1-en-1-yl)-4-((4-fluoro-3-methoxyphenyl)sulfonyl)-3,4-dihydro-2H-benzo[b][1,4]oxazin-2-yl)methyl)amino)-2-oxoacetic acid], the EC50 at Gal4-RORγ-LBD (setting [2]) was more than 10000 nM; on RORγ-LBD (RORγ-LBD TR-FRET assay), less than 500 nM. Moreover, the “TR-FRET Assay Max Response” value on RORγ-LBD (RORγ-LBD TR-FRET assay) is “**** (a value greater than 200)”.

Values taken from patent publication US9896441B2 (Lycera Corporation, priority 2014, dated 2018).
